Data taken from patent US20220064146A1, “KINASE INHIBITOR COMPOUNDS AND COMPOSITIONS AND METHODS OF USE” (ICAHN SCHOOL OF MEDICINE AT MOUNT SINAI, priority 2018, published 2022).

Biological target: T1, DYRK1/DYRK1A (Homo sapiens, UniProt Q13627)
T1 construct: purchased Reaction Biology Corp. (assay service)
Test: DYRK1/DYRK1A IC50 assay (Reaction Biology Corp.)
Format: biochemical
Conditions: DYRK1/DYRK1A assay from Reaction Biology Corp.; NI: No inhibition

| SMILES | IC50 [µM] |
| --- | --- |
| CCn1c(=O)[nH]c2ccc(-c3cnc(NCc4ccccc4)nc3)cc21 [Compound 57a, 6-(2-(Benzylamino)pyrimidin-5-yl)-1-ethyl-1H-benzo[d]imidazol-2(3H)-one] | 0.243 |
| CC(C)n1c(=O)[nH]c2ccc(-c3cnc(NCc4ccccc4)nc3)cc21 [Compound 57b, 6-(2-(Benzylamino)pyrimidin-5-yl)-1-isopropyl-1H-benzo[d]imidazol-2(3H)-one] | 4.28 |
| O=c1[nH]c2ccc(-c3cnc(NCc4ccccc4)nc3)cc2n1C1CC1 [Compound 57c, 6-(2-(Benzylamino)pyrimidin-5-yl)-1-cyclopropyl-1H-benzo[d]imidazol-2(3H)-one] | 0.714 |
| COCCOc1cccc(CNc2ncc(-c3ccc4[nH]c(=O)[nH]c4c3)cn2)c1 [Compound 62, 5-(2-((3-(2-Methoxyethoxy)benzyl)amino)pyrimidin-5-yl)-1H-benzo[d]imidazol-2(3H)-one] | 0.0484 |

Next, values leading:

| IC50 [µM] | SMILES |
| --- | --- |
| 0.499 | C[C@@H](Nc1ncc(-c2ccc3[nH]c(=O)[nH]c3c2)cn1)c1ccccc1 [Compound 60a, (R)-5-(2-((1-Phenylethyl)amino)pyrimidin-5-yl)-1H-benzo[d]imidazol-2(3H)-one] |
| 0.177 | C[C@H](Nc1ncc(-c2ccc3[nH]c(=O)[nH]c3c2)cn1)c1ccccc1 [Compound 60b, (S)-5-(2-((1-Phenylethyl)amino)pyrimidin-5-yl)-1H-benzo[d]imidazol-2(3H)-one] |
